These results are taken from patent US20200206231A1, “TOPICAL PHARMACEUTICAL COMPOSITION, METHOD FOR PRODUCING THE TOPICAL PHARMACEUTICAL COMPOSITION, USE OF TOPICAL PHARMACEUTICAL COMPOSITION AND METHOD FOR TOPICAL TREATMENT OF PSORIASIS, ATOPIC DERMATITIS OR CHRONIC ECZEMA” (BIOLAB SANUS FARMACÊUTICA LTDA., priority 2012, published 2020).

What all share (type): cell-based
Details in all cases: human keratinocytes + LPS, 48 hours, mean ± standard deviation

Assay [1] has as its system IL-10. Kind of assay: Production of IL-10 in LPS-stimulated human keratinocyte culture (sandwich ELISA). How it is done: (§1) the effect of formulation 1 (described in example 1) was evaluated In this study, in the synthesis of inflammatory mediators: IL-1, IL-6, IL-8, IL-10, IL-12, prostaglandin E2 (PGE2), Leukotriene B4 (LBT4), interferon gamma (IFN-gamma) and tumor necrosis factor alpha (TNF-alpha) in a culture of human keratinocytes in basal condition and stimulated with bacterial lipopolysaccharides (LPS), to simulate the inflammatory response.
(§2) Human keratinocytes (Cascade Biologics, USA) were sown in 75 cm^2 bottles (Corning Inc, USA), cultured and expanded in a wet incubator to 37° C. in the presence of CO2, using a specific culture medium. When reaching confluence, cells were seeded in 24 well plates (Nunc, USA) for further incubation with non-toxic dilutions of formulation 1, described in example 1, and for evaluation of proposed mediators.
(§3) The evaluated concentrations were 0.0002; 0.0001; and 0.000025 and 0.00005% (w/v).
(§4) Cells were kept in touch with dilutions of the formulations and LPS (Sigma, USA) for 48 hours for further collection of the supernatant and the cell lysate. As a positive control of production of mediators, the cells were kept in touch only with LPS (Sigma, USA) in the same amount administered along with the formulations (samples), and as a basal control, cells alone were used, without the presence of LPS or formulations.
(§5) Quantification of inflammatory mediators (IL-1, IL-6, IL-8, IL-10, IL-12, IFN-gamma and TNF-alpha) was performed using a kit of enzyme-linked immunosorbent assay (sandwich ELISA) commercially available. And the quantification of PGE2 and LBT4 mediators was performed by an ELISA competitive binding assay. The results were expressed in pg/mL, calculated from the values of references obtained with a standard curve constructed with known concentrations of the mediators of interest (table 2).
On the technique in general: An ELISA detects its analyte on a solid surface through an enzyme-linked reagent.

The subject of assay [2] is LTB4. Kind of assay: Production of LTB4 in LPS-stimulated human keratinocyte culture (ELISA competitive binding assay). Here is the method:
as §1, §2, §3, §4, §5

The test system of assay [3] is IL-12. Kind of assay: Production of IL-12 in LPS-stimulated human keratinocyte culture (sandwich ELISA). How it is done:
as §1, §2, §3, §4, §5

The subject of assay [4] is IL-1. Kind of assay: Production of IL-1 in LPS-stimulated human keratinocyte culture (sandwich ELISA). How it is done:
as §1, §2, §3, §4, §5

The subject of assay [5] is TNF-alpha. Kind of assay: Production of TNF-alpha in LPS-stimulated human keratinocyte culture (sandwich ELISA). How it is done:
as §1, §2, §4, §5

The subject of assay [6] is IL-8. Kind of assay: Production of IL-8 in LPS-stimulated human keratinocyte culture (sandwich ELISA). Here is the method:
as §1, §2, §3, §4, §5

Each structure is given as a SMILES string.

Turning to `CC(C)=CCC[C@@](C)(O)[C@H]1CC=C(C)CC1` [Alpha bisabolol, 1-methyl-4-(1,5-dimethyl-1-hydroxy-4(5)-hexenyl)-1-cyclohexene], the “Production of inflammatory mediators: IL-10” value in assay [1] (Dilution: 0.00005 (% w/v)) amounted to 27.15 ± 2.99 pg/mL; in assay [1] (Dilution: 0.0002 (% w/v)) it was 28.30 ± 1.36 pg/mL. The entries for the “Production of inflammatory mediators: LTB4” value in assay [2] (Dilution: 0.00005 (% w/v)) and in assay [2] (Dilution: 0.0002 (% w/v)) were 1083.83 ± 115.59 pg/mL and 648.55 ± 11.09 pg/mL, respectively. Further, the “Production of inflammatory mediators: IL-12” value was 979.50 ± 35.35 pg/mL in assay [3] (Dilution: 0.00005 (% w/v)) and 954.50 ± 70.71 pg/mL in assay [3] (Dilution: 0.0002 (% w/v)). In addition, the “Production of inflammatory mediators: IL-1” value in assay [4] (Dilution: 0.00005 (% w/v)) was determined as 313.43 ± 33.30 pg/mL; in assay [4] (Dilution: 0.0002 (% w/v)), 354.74 ± 37.03 pg/mL. The “Production of inflammatory mediators: TNF-alpha” value is reported as 6.64 ± 0.32 pg/mL in assay [5] (Dilution: 0.00005 (% w/v)) and 8.00 ± 1.61 pg/mL in assay [5] (Dilution: 0.0002 (% w/v)). For the same molecule, the “Production of inflammatory mediators: IL-8” value in assay [6] (Dilution: 0.00005 (% w/v)) was 64.23 ± 13.00 pg/mL; in assay [6] (Dilution: 0.0002 (% w/v)), 28.90 ± 9.58 pg/mL.
`CN(Cc1cnc2nc(N)nc(N)c2n1)c1ccc(C(=O)N[C@@H](CCC(=O)O)C(=O)O)cc1` [Methotrexate]: the “Production of inflammatory mediators: IL-10” value in assay [1] (Dilution: 0.00005 (% w/v)) was 29.08 ± 1.36 pg/mL; in assay [1] (Dilution: 0.0002 (% w/v)), 23.11 ± 1.08 pg/mL. For the same molecule, the “Production of inflammatory mediators: LTB4” value in assay [2] (Dilution: 0.00005 (% w/v)) came to 1282.15 ± 174.81 pg/mL; in assay [2] (Dilution: 0.0002 (% w/v)), 543.82 ± 78.75 pg/mL. Further, the “Production of inflammatory mediators: IL-12” value in assay [3] (Dilution: 0.00005 (% w/v)) is 1042.00 ± 53.03 pg/mL; in assay [3] (Dilution: 0.0002 (% w/v)) it was 1004.50 ± 70.71 pg/mL. In addition, the “Production of inflammatory mediators: IL-1” value in assay [4] (Dilution: 0.00005 (% w/v)) was 291.69 ± 34.42 pg/mL; in assay [4] (Dilution: 0.0002 (% w/v)), 187.35 ± 26.22 pg/mL. Moreover, the “Production of inflammatory mediators: TNF-alpha” value in assay [5] (Dilution: 0.0002 (% w/v)) came to 4.82 ± 0.32 pg/mL. For the same molecule, the “Production of inflammatory mediators: IL-8” value in assay [6] (Dilution: 0.00005 (% w/v)) is on record as 39.07 ± 7.53 pg/mL; in assay [6] (Dilution: 0.0002 (% w/v)), 19.39 ± 8.00 pg/mL.
